According to patent US20150274751A1, “TREATMENT OF S[…] AN INHIBITOR OF CBP/CATENIN” (PRISM Pharma Co., Ltd., priority 2012, published 2015):

How the values were obtained:
[1] = body weight in bleomycin-injected mice; assay type: in vivo, female C3H/HeJ inbred mice (Mus musculus); details: Group 4: bleomycin plus DEX 1 mg/kg IP BID; differences among groups at sacrifice not significant (P>0.05)
Description: Dermal fibrosis was induced locally by six weeks of once-daily subcutaneous injections of bleomycin (0.1 U in 0.1 mL) into a defined area on the back of each mouse. Test and control articles were administered by twice-daily intraperitoneal injection starting from Day 14 (i.e., two weeks after the initiation of bleomycin injection). For mice of Groups 1-4, test/control article were administered (BID, IP) for four weeks, starting from Day 14 (i.e., two weeks after the initial bleomycin injection) administration was performed twice daily. Group 1 received negative control article (PBS) at 200 μL/mouse. Groups 2 and 3 received low- and high-dose test article dosing solutions (0.05 and 0.5 mg/mL Compound A) at doses of 0.5 and 5 mg/kg, respectively. Group 4 received DEX dosing solution (1 mg/mL) at doses of 1 mg/kg. For animals of Groups 2-4, doses were administered at dose volumes of 10 mL/kg, and dose volumes for individual animals were recalculated once weekly based on the most recent body weights. Animals were administered bleomycin and test and control articles in two cohorts, with dosing staggered by one day. Cohort A was composed of the first five animals in each group [x01-x05, where x denoted the study group number (1, 2, 3, or 4)]. Cohort B was composed of the remaining animals (x06-x10). […]

[2] = test system: bleomycin-induced dermal fibrosis; assay: murine model of bleomycin-induced dermal fibrosis (histopathology scores); assay type: in vivo, female C3H/HeJ inbred mice (Mus musculus)
Excerpt: The objective of this study was to assess the effects of the test article Compound A, an alpha helix mimetic β-catenin inhibitor compound, in a murine model of bleomycin-induced dermal fibrosis. Compound A is 4-(((6S,9S,9aS)-1-(benzylcarbamoyl)-2,9-dimethyl-4,7-dioxo-8-(quinolin-8-ylmethyl)octahydro-1H-pyrazino[2,1-c][1,2,4]triazin-6-yl)methyl)phenyl dihydrogen phosphate. Negative and positive control articles were phosphate buffered saline (PBS) and dexamethasone (DEX, a known treatment for scleroderma), respectively.
The high-dose (0.5 mg/mL) dosing solution of test article was prepared by mixing 4 mL of test article (stock solution at […]) with 36 mL of PBS. The low-dose (0.05 mg/mL) dosing solution was prepared by mixing 4 mL of the high-dose test article dosing solution (0.5 mg/mL) with 36 mL of PBS. The DEX dosing solution (1 mg/mL) was prepared by mixing 1 mL of the DEX stock solution (3 mg/mL) with 2 mL of PBS. The test and positive control articles were prepared once weekly, aliquoted and stored at 4° C. protected from light.
Forty-five female C3H/HeJ inbred mice (Mus musculus) at ages of approximately 6 weeks were obtained from Jackson Laboratory (Bar Harbor, Me.) for use in the study. Mice were selected for the study since these animals are an accepted species frequently used in pre-clinical evaluation of drugs intended for human use.
Dermal fibrosis was induced locally by six weeks of once-daily subcutaneous injections of bleomycin (0.1 U in 0.1 mL) into a defined area on the back of each mouse. Test and control articles were administered by twice-daily intraperitoneal injection starting from Day 14 (i.e., two weeks after the initiation of bleomycin injection). For mice of Groups 1-4, test/control article were administered (BID, IP) for four weeks, starting from Day 14 (i.e., two weeks after the initial bleomycin injection) administration was performed twice daily. Group 1 received negative control article (PBS) at 200 μL/mouse. Groups 2 and 3 received low- and high-dose test article dosing solutions (0.05 and 0.5 mg/mL Compound A) at doses of 0.5 and 5 mg/kg, respectively. Group 4 received DEX dosing solution (1 mg/mL) at doses of 1 mg/kg. […]
Mice were euthanized on Day 42, i.e., following six weeks of bleomycin injection and four weeks of test/control article treatment. A full gross necropsy was performed on each mouse, and any macroscopic abnormality was recorded. […]
Formalin-fixed skin and lung tissues from each mouse were processed for histopathology. […] Slides were evaluated for dermal fibrosis and dermal inflammation. […] Dermal fibrosis and inflammation were scored using the industry standard 5-point scoring system as follows: 0=no significant changes; 1=trace to minimal severity; 2=mild severity; 3=moderate severity; 4=marked severity. […]

SMILES	decrease in mean body weight [1]	dermal sclerosis scores vs vehicle-treated mice (FIG. 1) ([2]; Compound A at either dose (0.5 and 5 mg/kg IP BID Days 14-41), Day 42, P<0.01)	dermal fibrosis (summary) ([2]; bleomycin-injected mice, treatment IP BID Days 14-41)	dermal inflammation scores ([2]; bleomycin-injected mice, Compound A 0.5 and 5 mg/kg IP BID Days 14-41, Day 42 histopathology, 0-4 score)	amount of dermal fibrosis (qualitative histopathology) ([2]; both test article-treated groups (0.5 and 5 mg/kg IP BID), Day 42)
C[C@@H]1C[C@H]2[C@@H]3CCC4=CC(=O)C=C[C@]4(C)[C@@]3(F)[C@@H](O)C[C@]2(C)[C@@]1(O)C(=O)CO [DEX, dexamethasone]	largest decrease				
C[C@H]1[C@H]2N(C(=O)CN(C)N2C(=O)NCc2ccccc2)[C@@H](Cc2ccc(OP(=O)(O)O)cc2)C(=O)N1Cc1cccc2cccnc12 [Compound A, 4-(((6S,9S,9aS)-1-(benzylcarbamoyl)-2,9-dimethyl-4,7-dioxo-8-(quinolin-8-ylmethyl)octahydro-1H-pyrazino[2,1-c][1,2,4]triazin-6-yl)methyl)phenyl dihydrogen phosphate]		significant decrease	ameliorated	did not significantly affect	mildly reduce
